“Also recorded” adds a separate entry of the source.
Experiments:
Assay type in all cases: physicochemical
[1] = pKa of the compound of formula (I)
Description: (§1) The solubility of drugs in the acidic environment of the gastrointestinal tract is a prerequisite for their transmembrane transport and absorption into the human body to exert efficacy. Therefore, the very low solubility of the compound limits its use for development as a drug candidate.

[2] = Log D of the compound of formula (I)
Description: as §1

[3] = Solubility in solvents (descriptive)
Description: as §1

[4] = Equilibrium solubility in media with different pH values (shaking 72 h, 37° C.); conditions: for solubility thermodynamic at 72 h: thermodynamic from solid
[5] = Compatibility test of API and excipients (strong light, high temperature, high humidity, 17 days)
[6] = Related substances of pilot tablet batches and API (area normalization); conditions: batch after manufacture
Description: The amount of impurities in each batch of samples were relatively stable and no significant change in the amount and type of impurities was observed after the tableting process.

[7] = normal temperatur, 92.5% RH-17 Days

O=C([O-])c1ccc(Oc2ccc3cc(OCc4c(-c5c(Cl)cccc5Cl)noc4C4CC4)ccc3c2)nc1.[Na+] [COMPOUND I, 6-(6-(((5-cyclopropyl-3-(2,6-dichlorophenyl)isoxazol-4-yl)methoxy)naphthalene-2-yl)oxy) sodium nicotinate]
pKa [1]: 3.76
logD [2]: 5.76
solubility ([3]; 0.01 mol/L sodium hydroxide solutions): practically insoluble
solubility ([3]; N, N-dimethylformamide): soluble
solubility ([3]; acetonitrile): practically insoluble
solubility ([3]; dimethyl sulfoxide): soluble
solubility ([3]; ethyl acetate): practically insoluble
solubility ([3]; methanol): soluble
solubility ([3]; tetrahydrofuran): practically insoluble
solubility ([3]; water): practically insoluble
solubility thermodynamic at 72 h ([4]; aqueous buffer, pH 6.0, 37° C.): 0.0015 mg/mL
solubility thermodynamic at 72 h ([4]; aqueous buffer, pH 6.8, 37° C.): 0.217 mg/mL
solubility thermodynamic at 72 h ([4]; aqueous buffer, pH 7.0, 37° C.): 0.365 mg/mL
solubility thermodynamic at 72 h ([4]; aqueous buffer, pH 8.0, 37° C.): 20.4 mg/mL
solubility (in words) ([4]; low pH (pH 1.0-5.0)): almost insoluble
solubility (in words) ([4]; low pH (pH 1.0-5.0), listed as compound of formula (I)): practically insoluble
solubility (in words) ([4]; pH 6.8): very slightly soluble
solubility (in words) ([4]; pure water): sparingly soluble; also recorded: slightly soluble
solubility thermodynamic at 72 h ([4]; water, pH 9.3, water, H2O (The final pH was around 9.3), 37° C.): 22.3 mg/mL
Related substances (%) COMPOUND I-B ([5]; 0 Day): 0.2869%
Related substances (%) COMPOUND I-IM1 ([5]; 0 Day): 0.2264%
Related substances (%) Other maximum impurities ([5]; 0 Day): 0.1001%
Related substances (%) Total impurities ([5]; 0 Day): 1.4056%
Related substances (%) COMPOUND I-B ([5]; 25° C., 4500Lx-17 Days): 0.2896%
Related substances (%) COMPOUND I-IM1 ([5]; 25° C., 4500Lx-17 Days): 0.2338%
Related substances (%) Other maximum impurities ([5]; 25° C., 4500Lx-17 Days): 0.1135%
Related substances (%) Total impurities ([5]; 25° C., 4500Lx-17 Days): 1.4901%
Related substances (%) COMPOUND I-B ([5]; 60° C.-17 Days): 0.2964%
Related substances (%) COMPOUND I-IM1 ([5]; 60° C.-17 Days): 0.2278%
Related substances (%) Other maximum impurities ([5]; 60° C.-17 Days): 0.1158%
Related substances (%) Total impurities ([5]; 60° C.-17 Days): 1.4686%
Related substances (%) COMPOUND I-B [5, 7]: 0.2836%
Related substances (%) COMPOUND I-IM1 [5, 7]: 0.2318%
Related substances (%) Other maximum impurities [5, 7]: 0.1124%
Related substances (%) Total impurities [5, 7]: 1.4400%
total impurity fluctuations of related substances ([5]; strong light, high temperature and high humidity, compared with 0 day): less than 0.5%
COMPOUND I-C ([6]; criterion NMT 0.15%): Not detected
COMPOUND I-IM1 ([6]; criterion NMT 0.15%): 0.12%
COMPOUND I-IM2 ([6]; criterion NMT 0.15%): 0.12%
Any individual unspecified impurity ([6]; criterion NMT 0.2%): 0.048%
COMPOUND I-B ([6]; criterion NMT 0.20%): 0.015%
Total impurities ([6]; criterion NMT 2.0%): 0.47%
